Like-named read-outs stand apart in the source and are kept apart here.
Tests used:
[1] = molecular target: recombinant human IDO (Homo sapiens, UniProt P14902); experiment: IDO inhibition kinetics (N-formylkynurenine formation, absorbance at 321 nm); type: biochemical; details: for manner of IDO inhibition: assay repeated using differing concentrations
Protocol: The following reaction (Sono, M., Cady, S. G. Biochemistry 28, 5392-5399 (1989)) was used to measure the kinetics of inhibition of IDO using compounds of this invention as well as other compounds for comparison, as listed in Table 4.
A solution of 0.1M potassium phosphate buffer (pH 6.5; optimal at 37° C.), 25 μM methylene blue, 200 μg/ml of catalase, 10 mM ascorbic acid, 50 nM of recombinant human IDO and 100 μM L-Tryptophan was prepared. The rate of product formation (Δε321=3.75 mM^−1 cm^−1 for N-formylkynurenine) was determined from the slope of the initial linear absorbance increase at 321 nm as a function of time.

[2] = molecular target: IDO (Oryctolagus cuniculus, UniProt G1SJI2); details: tryptophan (substrate) analogues; Sono and Cady 1989, Cady and Sono 1991; cited from earlier work
IDO, sequence (G1SJI2 1-402): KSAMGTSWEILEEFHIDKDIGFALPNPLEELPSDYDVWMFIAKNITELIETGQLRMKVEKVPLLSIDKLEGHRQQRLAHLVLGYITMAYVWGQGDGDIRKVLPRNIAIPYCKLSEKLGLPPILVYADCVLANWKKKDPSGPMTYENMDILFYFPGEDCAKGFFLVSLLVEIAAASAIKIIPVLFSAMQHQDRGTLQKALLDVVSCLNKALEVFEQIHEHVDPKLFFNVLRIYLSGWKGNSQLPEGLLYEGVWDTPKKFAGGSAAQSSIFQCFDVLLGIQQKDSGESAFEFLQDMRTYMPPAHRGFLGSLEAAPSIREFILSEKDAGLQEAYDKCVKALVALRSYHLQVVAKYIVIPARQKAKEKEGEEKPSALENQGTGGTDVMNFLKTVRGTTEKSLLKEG

[3] = molecular target: purified, human IDO (Homo sapiens, UniProt P14902); experiment: In vitro IDO activity assay (kynurenine adduct detected at 480 nm) used for bioassay guided fractionation; type: biochemical; details: extracts and compounds identified by bioassay guided fractionation
purified, human IDO, sequence (P14902 whole entry): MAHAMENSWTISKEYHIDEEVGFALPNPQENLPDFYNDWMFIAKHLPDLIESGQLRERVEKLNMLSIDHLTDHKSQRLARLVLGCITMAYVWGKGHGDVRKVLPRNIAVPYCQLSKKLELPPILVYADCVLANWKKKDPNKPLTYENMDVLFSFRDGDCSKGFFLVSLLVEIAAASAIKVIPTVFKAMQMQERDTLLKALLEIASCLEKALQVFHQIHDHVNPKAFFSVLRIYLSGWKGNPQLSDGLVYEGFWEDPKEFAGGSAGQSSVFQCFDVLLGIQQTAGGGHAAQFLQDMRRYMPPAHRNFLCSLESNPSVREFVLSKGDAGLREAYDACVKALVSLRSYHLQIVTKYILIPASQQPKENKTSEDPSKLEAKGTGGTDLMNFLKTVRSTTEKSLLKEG
Protocol: Various in vitro assays (see for example Takikawa, et al. J. Biol. Chem. 263, 2041-2048 (1988)) may be used to screen (e.g. high-throughput screening) or test reaction products or extracts obtained natural sources for IDO inhibition activity or to determine the kinetics of IDO inhibition. For example, IDO activity may be assayed by means of a reaction mixture (100 microlitre total volume) containing potassium phosphate buffer (50 mM, pH 6.5), ascorbic acid (20 mM), catalase (200 microgram/mL), methylene blue ([…]), L-tryptophan ([…]), and purified, human IDO. The reaction shown below may be allowed to proceed for 40 min (37° C.) and stopped by the addition of 20 microlitre of 30% (w/v) trichloroacetic acid. The N-formyl kynurenine formed from tryptophan in the reaction mixture during this time is then converted to kynurenine by incubating the reaction mixture at 65° C. for 15 minutes. After cooling the reaction mixture to room temperature, an equal volume of 2% (w/v) p-dimethylamino benzaldehyde in acetic acid may be added to convert the kynurenine present in the reaction mixture to a yellow adduct that can be detected at 480 nm. A standard curve for this latter reaction may be constructed with the use of standard solutions prepared from authentic L-kynurenine. Protein concentration may be determined by the Coomassie blue dye-binding method of Bradford with bovine serum albumin as a standard. (Takikawa et al, J. Biol. Chem. 263, 2041-2048).
Crude extracts from the marine hydroid Garveia annula collected in British Columbia and the sponge Xestospongia sp. collected in Papua New Guinea show activity in the aforementioned assay. […] Annulins A and B, garveatins A and C, and 2-hydroxygarvin A have been previously reported (Fahy et al J. Org. Chem., (1985), 50, 1149-50; J. Org. Chem., (1986), 51, 57-61; J. Org. Chem., (1986), 51, 5145-48; Can. J. Chem., (1987), 65, 376-83), but were not known to be IDO inhibitors. Annulin C, Garvalone C and garveatins E and F are novel. […] Xestoquinone, adociaquinone A, and adociaquinone B had been previously isolated from sponge extracts and their structures have been reported in the literature (Schmitz and Bloor J. Org. Chem. (1988), 53, 3922-3925), but were not known as IDO inhibitors.

[4] = 50 nM recombinant human IDO, 100 μM L-Tryptophan, pH 6.5, read-out: Ki

recombinant human IDO, sequence (P14902 whole entry): as above

Ki [1, 4] [µM] | IDO inhibition activity (qualitative) [3] | Compound | other results
0.53 | – | COC1=CC(=O)c2ccccc2C1=O | –
100 | – | O=C1C=C(O)C(=O)c2ccccc21 | –
– | – | NC(Cc1coc2ccccc12)C(=O)O (racemic) [beta-(3-benzofuranyl)-DL-alanine] | manner of IDO inhibition [2]: competitive inhibitors
– | – | Cn1cc(C[C@H](N)C(=O)O)c2ccccc21 [1-methyl-L-tryptophan (1MT), 1-methyl-L-tryptophan] | manner of IDO inhibition [2]: competitive inhibitors
2.3 | active IDO inhibitors | CCCc1c(C(=O)OC)c(OC)cc2cc3c(c(O)c12)C(=O)C(C)(O)C(=O)C3(C)C (centres unmarked) [2-Hydroxygarvin A] | –
0.086 | active IDO inhibitors | CC12CCCc3coc(c31)C(=O)c1cc3c(cc12)C(=O)C1=C(C3=O)S(=O)(=O)CCN1 (centres unmarked) [Adociaquinone A] | –
42 | – | O=C1c2ccccc2C(=O)c2c1ccc(O)c2O [Alizarin, reference compound] | –
0.694 | active IDO inhibitors | CCc1c(C)cc2c(c1O)C(=O)C1=C(C2=O)C(C)(C)OC1(O)C(=O)OC (centres unmarked) [Annulin A] | –
0.123 | active IDO inhibitors | CCc1c(C)cc2c(c1O)C(=O)C1=C(C2=O)C(C)(C)C(=O)C(C)(C(=O)OC)O1 (centres unmarked) [Annulin B] | –
0.144 | active IDO inhibitors | CCc1c(C)cc2c(c1O)C(=O)C1=C(C2=O)C(C)(C)OC1(OC)C(=O)OC (centres unmarked) [Annulin C] | manner of IDO inhibition [1]: non-competitive
1110 | – | O=c1ccc2ccccc2o1 [Coumarin, reference compound] | –
– | – | O=C1C(Cl)=C(Cl)C(=O)c2ccccc21 [Dichlone, reference compound] | Ki [1]: 0.045 µM
> 5000 | – | Oc1ccc(O)cc1 [Dihydroquinone, reference compound] | –
1.25 | – | COC(=O)c1c(C)cc2cc3c(c(O)c2c1OC)C(=O)C(C)(CC(C)=O)C(=O)C3(C)C (centres unmarked) [Garvalone C] | –
3.2 | active IDO inhibitors | CC(=O)c1c(C)cc2cc3c(c(O)c2c1O)C(=O)C(C)=C(O)C3(C)C [Garveatin A] | –
1.18 | active IDO inhibitors | COc1c(C(C)=O)c(C)cc2cc3c(c(O)c12)C(=O)C(C)(C)C(=O)C3(C)C [Garveatin C] | –
3.1 | active IDO inhibitors | CCC1=C(C)C(=O)c2cc3c(c(O)c2C1=O)C(=O)C(C)=C(O)C3(C)C [Garveatin E] | –
1.42 | active IDO inhibitors | CCc1c(C)cc2cc3c(c(O)c2c1O)C(=O)C(C)(O)C(=O)C3(C)C (centres unmarked) [Garveatin F] | –
~2100 | – | CC1Cc2c(c(O)cc3cc4c(c(O)c23)OC(C)(C)C4(C)C)C(=O)O1 (centres unmarked) [Garvin C] | –
> 40 | – | CC1=C(C/C=C(\C)CCC[C@H](C)CCC[C@H](C)CCCC(C)C)C(=O)c2ccccc2C1=O [Vitamin K1, reference compound] | –
0.181 | active IDO inhibitors | CC12CCCc3coc(c31)C(=O)c1cc3c(cc12)C(=O)C=CC3=O (centres unmarked) [Xestoquinone] | –
46000 | – | Doxorubicin [reference compound] | –

Compound | Ki [1, 4] [µM] | IDO inhibition activity (qualitative) [3] | other results
O=C1C=Cc2ccccc2C1=O [1,2 naphthoquinone, reference compound] | 3.4 | – | –
CC12CCCc3coc(c31)C(=O)c1cc3c(cc12)C(=O)C1=C(NCCS1(=O)=O)C3=O (centres unmarked) [Adociaquinone B] | 0.025 | active IDO inhibitors | –
O=C1C=CC(=O)c2c(O)cccc21 [Juglone, reference compound] | 0.048 | – | –
CC1=CC(=O)c2ccccc2C1=O [Menadione (Vitamin K3), Menadione, reference compound] | 0.58 | shown to be an IDO inhibitor | manner of IDO inhibition [1]: non-competitive
CC(=O)CC(c1ccccc1)c1c(O)c2ccccc2oc1=O (centres unmarked) [Warfarin, reference compound] | > 32 | – | –
